Source: US20230293640A1, “COMPOUNDS FOR THE TREATMENT OF ENDOTHELIITIS IN CONTEXT OF VIRALLY CAUSED DISEASES” (F4 PHARMA GMBH, priority 2020, published 2023)
Where a SMILES comes first, the peptide text is derived from it.

Legend:
[1] = test system: COVID-19-associated severe ARDS; conditions: data of the 3 patients of example 2
From the text: Example 2: Critically ill patients suffering from a COVID-19 infection in a second university care centre.
To this date, we treated three patients in individualized therapeutic attempts with FX06 in the second university care center.
All three patients were diagnosed with SARS-CoV-2 pneumonia resulting in severe acute respiratory distress syndrome (ARDS) and required extracorporeal membrane oxygenation (ECMO) therapy upon or early during their treatment in our facility. All patients were referred to our hospital from basic care providers due to the severity of their conditions. All patients required ECMO therapy at the time of FX06 treatment.
FX06 400 mg was administered once per day after informed consent by the close relative.

[2] = human, in vivo; cited from earlier work

CC[C@H](C)[C@H](NC(=O)[C@@H]1CCCN1C(=O)[C@@H]1CCCN1C(=O)[C@@H]1CCCN1C(=O)[C@H](C)NC(=O)[C@@H]1CCCN1C(=O)[C@H](CCCNC(=N)N)NC(=O)[C@H](CC(C)C)NC(=O)[C@H](CO)NC(=O)[C@@H]1CCCN1C(=O)[C@H](C)NC(=O)[C@H](CCC(=O)O)NC(=O)[C@H](CCC(=O)O)NC(=O)[C@H](CCCNC(=N)N)NC(=O)[C@H](CCCCN)NC(=O)[C@H](CCCCN)NC(=O)[C@H](CC(=O)O)NC(=O)[C@H](CC(C)C)NC(=O)[C@@H]1CCCN1C(=O)[C@H](CCCNC(=N)N)NC(=O)[C@H](Cc1c[nH]cn1)NC(=O)CN)C(=O)N[C@@H](CO)C(=O)NCC(=O)NCC(=O)NCC(=O)N[C@@H](Cc1ccc(O)cc1)C(=O)N[C@@H](CCCNC(=N)N)C(=O)O [FX06] (H-GHRPLDKKREEAPSLRPAPPPISGGGYR-OH)
safety in severe ARDS [1]: safe to use | tolerability / safety profile in clinical trials [2]: well tolerated with a benign safety profile
